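Grown in 96-well plates, cells were treated for 48 hours with each compound at five concentrations. Insufficient inhibition: endpoint recorded as highest concentration tested. At the GI50, growth is halved. TGI marks complete inhibition of growth.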
How the values were obtained:
Test in all cases: growth of human tumour cells (NCI), 48 h
[1] = system: U251 CNS
[2] = system: UACC-62 melanoma
[3] = system: PC-3 prostate
[4] = system: HT29 colon
[5] = system: SN12C renal
[6] = system: SK-OV-3 ovarian
[7] = system: MOLT-4 leukemia
[8] = system: CAKI-1 renal
[9] = system: OVCAR-5 ovarian
[10] = system: TK-10 renal
[11] = system: LOX IMVI melanoma
[12] = system: T-47D breast
[13] = system: HCC-2998 colon
[14] = system: SK-MEL-5 melanoma
[15] = system: OVCAR-4 ovarian
[16] = system: HS 578T breast
[17] = system: NCI-H23 lung
[18] = system: CCRF-CEM leukemia
[19] = system: OVCAR-8 ovarian
[20] = system: SNB-19 CNS
[21] = system: MDA-MB-435
[22] = system: HOP-62 NSCLC
[23] = system: HCT-116 colon
[24] = system: MDA-MB-231 breast
[25] = system: RPMI-8226 leukemia
[26] = system: K-562 leukemia
[27] = system: OVCAR-3 ovarian
[28] = system: SK-MEL-28 melanoma
[29] = system: NCI-H226 lung
[30] = system: MALME-3M melanoma
[31] = system: IGROV1 ovarian
[32] = system: SF-295 CNS
[33] = system: COLO 205 colon
[34] = system: HCT-15 colon
[35] = system: KM12 colon
[36] = system: NCI-H522 lung
[37] = system: M14 melanoma
[38] = system: SR leukemia
[39] = system: EKVX NSCLC
[40] = system: A549 NSCLC
[41] = system: MCF7 breast
[42] = system: SW-620 colon
[43] = system: HOP-92 NSCLC
[44] = system: NCI/ADR-RES ovarian
[45] = system: SK-MEL-2 melanoma
[46] = system: DU-145 prostate
[47] = system: UACC-257 melanoma
[48] = system: SF-268 CNS
[49] = system: ACHN renal
[50] = system: UO-31 renal
[51] = system: NCI-H460 lung
[52] = system: 786-0 renal

In the case of O=C1c2ccccc2-c2c1c1c(O)cccc1n2-c1ccccc1, the GI50 [1] is reported as > 100 µM, the TGI [1] is reported as > 100 µM and the GI50 [2] is reported as > 100 µM. For the same compound, the TGI [2] was > 100 µM, the GI50 [3] was > 100 µM and the TGI [3] was > 100 µM. For the same compound, the GI50 [4] was > 100 µM, the TGI [4] was > 100 µM and the GI50 [5] was > 100 µM. The TGI [5] was > 100 µM, the GI50 [6] was > 100 µM and the TGI [6] was > 100 µM. For the same compound, the GI50 [7] was > 100 µM, the TGI [7] was > 100 µM and the GI50 [8] was > 100 µM. For the same compound, the TGI [8] was > 100 µM, the GI50 [9] was > 100 µM and the TGI [9] was > 100 µM. For the same compound, the GI50 [10] was > 100 µM, the TGI [10] was > 100 µM and the GI50 [11] was > 100 µM. The TGI [11] was > 100 µM, the GI50 [12] was > 100 µM and the TGI [12] was > 100 µM. For the same compound, the GI50 [13] was > 100 µM, the TGI [13] was > 100 µM and the GI50 [14] was > 100 µM. The TGI [14] was > 100 µM, the TGI [15] was > 100 µM and the GI50 [16] was > 100 µM. The TGI [16] was > 100 µM, the GI50 [17] was > 100 µM and the TGI [17] was > 100 µM. The GI50 [18] was 45.3 µM, the TGI [18] was > 100 µM and the GI50 [19] was > 100 µM. The TGI [19] was > 100 µM, the GI50 [20] was > 100 µM and the TGI [20] was > 100 µM. For the same compound, the GI50 [21] was > 100 µM, the TGI [21] was > 100 µM and the GI50 [22] was 66.3 µM. The TGI [22] was > 100 µM, the GI50 [23] was > 100 µM and the TGI [23] was > 100 µM. For the same compound, the GI50 [24] was > 100 µM, the TGI [24] was > 100 µM and the GI50 [25] was 0.0318 µM. The TGI [25] was 93.8 µM, the GI50 [26] was > 100 µM and the TGI [26] was > 100 µM. The GI50 [27] was > 100 µM, the TGI [27] was > 100 µM and the GI50 [28] was 18.5 µM. For the same compound, the TGI [28] was > 100 µM, the GI50 [29] was > 100 µM and the TGI [29] was > 100 µM. For the same compound, the GI50 [30] was > 100 µM, the TGI [30] was > 100 µM and the GI50 [31] was > 100 µM. For the same compound, the TGI [31] was > 100 µM, the GI50 [32] was > 100 µM and the TGI [32] was > 100 µM. The GI50 [33] was > 100 µM, the TGI [33] was > 100 µM and the GI50 [34] was > 100 µM. The TGI [34] was > 100 µM, the GI50 [35] was > 100 µM and the TGI [35] was > 100 µM. For the same compound, the GI50 [36] was > 100 µM, the TGI [36] was > 100 µM and the GI50 [37] was 29.3 µM. For the same compound, the TGI [37] was > 100 µM, the GI50 [38] was > 100 µM and the TGI [38] was > 100 µM. For the same compound, the GI50 [39] was > 100 µM, the TGI [39] was > 100 µM and the GI50 [40] was > 100 µM. For the same compound, the TGI [40] was > 100 µM, the GI50 [41] was > 100 µM and the TGI [41] was > 100 µM. For the same compound, the GI50 [42] was > 100 µM, the TGI [42] was > 100 µM and the TGI [43] was 0.035 µM. The GI50 [44] was > 100 µM, the TGI [44] was > 100 µM and the GI50 [45] was > 100 µM. For the same compound, the TGI [45] was > 100 µM, the GI50 [46] was > 100 µM and the TGI [46] was > 100 µM. For the same compound, the GI50 [47] was > 100 µM, the TGI [47] was > 100 µM and the GI50 [48] was > 100 µM. For the same compound, the TGI [48] was > 100 µM, the GI50 [49] was > 100 µM and the TGI [49] was > 100 µM. The GI50 [50] was > 100 µM, the TGI [50] was > 100 µM and the GI50 [51] was > 100 µM. For the same compound, the TGI [51] was > 100 µM, the GI50 [52] was 62.2 µM and the TGI [52] was > 100 µM.

Source: PubChem BioAssay (NCI)
